Numbers after ± are expanded uncertainties.
Conditions: 101.33 kPa, Liquid, Pycnometric method

Fc1ccc(F)cc1 [1,4-difluorobenzene]
mass density (296.1 K): 1146 ± 36 kg/m3
mass density (327.2 K): 1110 ± 36 kg/m3

Fc1ccccc1 [fluorobenzene]
mass density (296.2 K): 1022 ± 16 kg/m3
mass density (330.1 K): 985 ± 16 kg/m3

Fc1ccc(F)c(F)c1F [1,2,3,4-tetrafluorobenzene]
mass density (296.4 K): 1408 ± 40 kg/m3
mass density (327.4 K): 1360 ± 40 kg/m3

Fc1cc(F)c(F)cc1F [1,2,4,5-tetrafluorobenzene]
mass density (296.7 K): 1421 ± 36 kg/m3
mass density (327.4 K): 1370 ± 36 kg/m3

Fc1cc(F)c(F)c(F)c1F [pentafluorobenzene]
mass density (296.9 K): 1511 ± 20 kg/m3
mass density (327.6 K): 1453 ± 20 kg/m3

Fc1cccc(F)c1 [1,3-difluorobenzene]
mass density (296.2 K): 1139 ± 36 kg/m3
mass density (330.6 K): 1094 ± 36 kg/m3

Fc1cc(F)c(F)c(F)c1 [1,2,3,5-tetrafluorobenzene]
mass density (296.3 K): 1403 ± 37 kg/m3
mass density (325.9 K): 1352 ± 37 kg/m3
